Assays:
[1] = Thermo-gravimetric analysis (TGA); assay type: physicochemical; details: TGA at 10° C./min in nitrogen, 50-800° C.
Procedure: The chlorhexidine chloride spheres (0.33M CaCl2 group) were analysed by Thermo-gravimetric analysis (TGA Q50, USA). Chlorhexidine diacetate crystals and CaCl2 powder (Sigma-Aldrich, C8106, Lot: SLBF7416V) were tested as comparisons. TGA was carried out at 10° C./min in a nitrogen atmosphere, over a temperature range of 50-800° C. The chlorhexidine proportion was further confirmed by the TGA result. […] The decomposition temperature of the chlorhexidine chloride spheres (210° C.) was higher than the chlorhexidine diacetate crystals (120° C.).

[2] = Chlorhexidine release from HEMA-UDMA resin discs, with or without ultrasound; assay type: physicochemical; details: no ultrasound, within 65 hours
Procedure: HEMA-UDMA resin was prepared by mixing 64% urethane dimethacrylate (UDMA) (Esschem UK, Lot: 591-22) and 36% hydroxyethyl methacrylate (HEMA) (Aldrich, 128635, Lot: STBC7495V), 0.08% of N,N-dimethyl-P-toluidine (Acros Organics, Lot: A0207283001) and 0.05% dimethylamino ethyl methacrylate (Aldrich, 234907, Lot: BCBF8391V) were added. The mixture was then stirred for 15 min (800 rpm, VWR Stirrer, USA). Finally, camphorquinone (Aldrich, 12, 489-3, Lot: 2338141) was added at the proportion of 0.1%. The mixture was stirred for another 15 min (VWR Stirrer, USA), and then the viscous liquid resin was prepared. Freeze dried chlorhexidine chloride compounds produced in Example 2 (precipitated with 0.33 M CaCl2) were weighed and incorporated within the resin at a loading level of 5% by weight. To explore the effect of different morphology on the release kinetics, chlorhexidine compounds with spherical, needle and flake morphology (from Example 1, FIG. 1, panels (b) and (c)) were incorporated into the resin. Incorporation of the chlorhexidine compounds within the resin was carried out by rotating the mixture contained in a 1 ml tube for 15 s in a Rotomix (120V/60 Hz, 2850 rotations/min) (ESPE RotoMix, USA). Chlorhexidine diacetate was also incorporated in the prepared resin in the same way, with loading rates of 5%, 10% and 15% (weight %). The filled resin was then placed into a Teflon mould (10 mm in diameter ×2 mm thick) and cured through a Mylar film with a curing light (Bluedent LED pen, Bulgaria) (430-490 nm, 600 mW/sq·cm) for 30 s. Then the discs were next weighed on a microbalance (Salter Ander-180A weighing scale, UK), and chlorhexidine content in each disc was calculated.
For the release study, all sample resin discs (HEMA-UDMA) containing chlorhexidine chloride compounds or chlorhexidine diacetate powder prepared in Example 5 were kept in cuvettes containing 3 ml deionized water, and kept at room temperature. And at each time point, solutions were collected for UV absorption tests (Lambda 35, Perkin Elmer, USA) and replaced with fresh deionized water.
For the chlorhexidine chloride compound doped discs (Example 5) chlorhexidine content was fixed at 5%, and ultrasound was exerted. Four groups (five discs in each group) were repetitively treated with ultrasound for 0 s, 10 s, 20 s, 30 s, accordingly, by contacting the ultrasound probe (Piezon Master 400, Swiss, 60 Hz, 45VA) on the disc surface at time points of 1 h, 3 h, 5 h, 15 h, 25 h, 40 h, 65 h, 95 h, 140 h, 205 h. After that, no ultrasound was carried out for all the groups, but release was carried on until the 650 hour time point. The UDMA-HEMA discs containing needle and flake chlorhexidine compounds and chlorhexidine diacetate (FIG. 1, panels (b) and (c), and FIG. 3, panel (g)) were also tested (UV absorption tests) at the same time points (same sample numbers) but without ultrasound treatment. For the chlorhexidine diacetate powder doped discs chlorhexidine content of 5%, 10% and 15% were also analysed, and no ultrasound treatment was carried out.

[3] = test system: L929 cells; details: mouse
Procedure: 0.5% chlorhexidine spheres stock solution was used to prepare fresh successive dilutions in sterile deionised water to obtain the final concentrations ranging from 0.0005 to 0.25%. For controls (untreated cultures), sterile deionised water was used. 25 μl of each treatment were added into respective wells to achieve final concentrations ranging from 0.00005-0.025%.
L929 cells, a mouse fibroblast-like cell line (ECACC 85011425) were cultured in Dulbecco's Modified Eagle's Medium (DMEM; Lonza, UK) supplemented with 10% fetal bovine serum (FBS) with 100 IU/mL penicillin, 100 μg/mL streptomycin and 2 mmol/L glutamine (all from Invitrogen, UK) in an humidified incubator with 10% CO2 and 95% air at 37° C.
Cell metabolic activity was evaluated by measuring the mitochondrial activity using a method commonly known as a methyl-tetrazolium (MTT) assay. MTT assay was carried out according to the protocols outlined in ISO 1 0993-5:2009 (Biological evaluation of medical devices—Part 5: Tests for in vitro cytotoxicity).
Trypsinisation was performed by routine methods and cell suspension was counted using a haemocytometer and seeded in 96-well microtiter plates at a concentration of 10,000 cells per well. The cells were then left overnight in the incubator to adhere to the wells. Following overnight incubation, medium was removed and cells were washed twice with PBS. The cells were then treated with different concentrations of chlorhexidine spheres (0.00005-0.025%) for 24 and 48 hours. Following treatment, culture medium containing chlorhexidine spheres was removed and 50 μL of 5 mg/mL tetrazolium salt MTT (Sigma-Aldrich, Gillingham, UK) was added to each well and incubated in 37 C for 4 h. Formazan crystals generated by mitochondrial enzyme activity were dissolved by 100 μl of isopropanol and the intensity of purple coloured reaction product quantified by measuring the absorbance spectra at 570 nm. A cell viability level below 70% of control (no treatment) was regarded as the toxic concentration according to the ISO protocol.

decomposition temperature [1] | chlorhexidine released by weight ([2]; 5% loading, deionized water, room temperature) | chlorhexidine released by weight ([2]; 10% loading) | chlorhexidine released by weight ([2]; 15% loading) | Structure (SMILES) | cellular viability [3]
120 °C | 6.7% | 11.0% | 15.1% | CC(=O)O.CC(=O)O.NC(=N\CCCCCC/N=C(N)/N=C(\N)Nc1ccc(Cl)cc1)/N=C(\N)Nc1ccc(Cl)cc1 [chlorhexidine diacetate, Chlorhexidine diacetate, reference compound] | –
– | – | – | – | [H]/N=C(\N/C(=N/[H])NCCCCCCNC(=N)NC(=N)Nc1ccc(Cl)cc1)Nc1ccc(Cl)cc1 [chlorhexidine, N,N″″1,6-Hexanediylbis[N′-(4-chlorophenyl)(imidodicarbonimidic diamide)]] | below 10%
